Test results as given in patent US8378107B2, “Heteroaryl antagonists of prostaglandin D2 receptors” (Panmira Pharmaceuticals, LLC, priority 2008, dated 2013).
pIC50: −log10 of the molar value.

The compounds below were run against T1, human DP2 receptor (Homo sapiens, UniProt Q9Y5Y4) (assay: DP2/CRTH2 radioligand binding assay using [3H]PGD2). Conditions: membranes of HEK293 cells expressing recombinant human DP2, 1 nM [3H]PGD2; read-out: hDP2.
T1 construct: expressed in transfected cells; membrane preparation
T1 sequence (Q9Y5Y4 1-395): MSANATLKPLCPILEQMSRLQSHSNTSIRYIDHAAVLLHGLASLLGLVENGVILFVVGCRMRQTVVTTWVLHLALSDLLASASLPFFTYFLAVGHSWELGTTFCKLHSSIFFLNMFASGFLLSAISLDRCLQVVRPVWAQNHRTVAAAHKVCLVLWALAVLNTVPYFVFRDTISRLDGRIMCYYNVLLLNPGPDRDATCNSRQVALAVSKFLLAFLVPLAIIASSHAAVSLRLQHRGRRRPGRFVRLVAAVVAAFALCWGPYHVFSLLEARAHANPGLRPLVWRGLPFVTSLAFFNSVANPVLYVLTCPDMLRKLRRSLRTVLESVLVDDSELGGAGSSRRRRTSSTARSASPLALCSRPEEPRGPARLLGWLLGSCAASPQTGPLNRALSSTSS
Experimental: The ability of a compound to bind to the human DP2 receptor is assessed via a radioligand binding assay using [^3H]PGD2. HEK293 cells stably expressing recombinant human DP2 are resuspended in 10 mM Hepes, 7.4 containing 1 mM DTT, lysed and centrifuged at 75,000×g to pellet the membranes. The membranes are resuspended in 10 mM Hepes, 7.4 containing 1 mM DTT and 10% glycerol to approximately 5 mg protein/ml. Membranes (2-10 μg protein/well) are incubated in 96-well plates with 1 nM [^3H]PGD2 and test compound in Assay Buffer (50 mM Hepes, 10 mM MnCl2, 1 mM EDTA, plus or minus 0.2% human serum albumin, pH 7.4) for 60 minutes at room temperature. The reactions are terminated by rapid filtration through Whatman GF/C glass fibre filter plates. The filter plates were pre-soaked in 0.33% polyethylenimine for 30 minutes at room temperature then washed in Wash Buffer (50 mM Hepes, 0.5 M NaCl pH 7.4) prior to harvesting. After harvesting, the filter plates are washed 3 times with 1 ml cold Wash Buffer then dried. Scintillant is then added to the plates and the radioactivity retained on the filters is determined on a Packard TopCount (Perkin Elmer). Specific binding is determined as total radioactive binding minus non-specific binding in the presence of 10 μM PGD2. IC50s were determined using GraphPad prism analysis of drug titration curves.

pIC50 | Structure (SMILES)
< 6.00 | COc1ccc(CC(=O)O)cc1-c1ncccc1CNC(=O)OCc1ccccc1 [Compound 1-1, {3-[3-(Benzyloxycarbonylamino-methyl)-pyridin-2-yl]-4-methoxy-phenyl}-acetic acid]
6.00 to 6.52 | CCN(Cc1cc2ccccc2nc1-c1cc(CC(=O)O)ccc1OC)C(=O)C1CC1 [Compound 2-1, (3-{3-[(Cyclopropanecarbonyl-ethyl-amino)-methyl]-quinolin-2-yl}-4-methoxy-phenyl)-acetic acid]
> 6.52 | CCN(Cc1nc2ccccc2cc1-c1cc(CC(=O)O)ccc1OC)C(=O)C1CC1 [Compound 2-4, (3-{2-[(Cyclopropanecarbonyl-ethyl-amino)-methyl]-quinolin-3-yl}-4-methoxy-phenyl)-acetic acid]
> 6.52 | CCN(Cc1cc(C)cnc1-c1cc(CC(=O)O)ccc1OC)C(=O)CCc1ccccc1 [Compound 1-3, [3-(3-{[Ethyl-(3-phenyl-propionyl)-amino]-methyl}-5-methyl-pyridin-2-yl)-4-methoxy-phenyl]-acetic acid]
> 6.52 | CCC(=O)N(CC)Cc1nc2ccccc2cc1-c1cc(CC(=O)O)ccc1OC [Compound 2-5, (3-{2-[(Ethyl-propionyl-amino)-methyl]-quinolin-3-yl}-4-methoxy-phenyl)-acetic acid]
> 6.52 | COc1ccc(CC(=O)O)cc1-c1cc2ccccc2nc1CN(Cc1ccccc1)C(=O)C1CC1 [Compound 2-8, (3-{2-[(Benzyl-cyclopropanecarbonyl-amino)-methyl]-quinolin-3-yl}-4-methoxy-phenyl)-acetic acid]
> 6.52 | CCN(Cc1cc(C)cnc1-c1cc(CC(=O)O)ccc1OC)C(=O)NCc1ccccc1 [Compound 1-4, {3-[3-(3-Benzyl-1-ethyl-ureidomethyl)-5-methyl-pyridin-2-yl]-4-methoxy-phenyl}-acetic acid]
6.00 to 6.52 | O=C(O)CCn1c2c(c3ccccc31)C[C@H](NS(=O)(=O)c1ccc(F)cc1)CC2 [Ramatroban, reference compound]
< 6.00 | CCN(Cc1cc2ccccc2nc1-c1cc(CC(=O)O)ccc1OC)C(C)=O [Compound 2-2, (3-{3-[(Acetyl-ethyl-amino)-methyl]-quinolin-2-yl}-4-methoxy-phenyl)-acetic acid]
> 6.52 | CCN(Cc1nc2ccccc2cc1-c1cc(CC(=O)O)ccc1OC)C(=O)COC [Compound 2-6, [3-(2-{[Ethyl-(2-methoxy-acetyl)-amino]-methyl}-quinolin-3-yl)-4-methoxy-phenyl]-acetic acid]
< 6.00 | CCN(Cc1cc2ccccc2nc1-c1cc(CC(=O)O)ccc1OC)C(=O)COC [Compound 2-3, [3-(3-{[Ethyl-(2-methoxy-acetyl)-amino]-methyl}-quinolin-2-yl)-4-methoxy-phenyl]-acetic acid]
> 6.52 | COc1ccc(CC(=O)O)cc1-c1cc2ccccc2nc1CN(Cc1ccccc1)C(C)=O [Compound 2-7, (3-{2-[(Acetyl-benzyl-amino)-methyl]-quinolin-3-yl}-4-methoxy-phenyl)-acetic acid]
6.00 to 6.52 | CCN(Cc1cc(C)cnc1-c1cc(CC(=O)O)ccc1OC)C(=O)C1CC1 [Compound 1-2, (3-{3-[(Cyclopropanecarbonyl-ethyl-amino)-methyl]-5-methyl-pyridin-2-yl}-4-methoxy-phenyl)-acetic acid]
